Data from US20070117157A1, “Parathyroid hormone-like polypeptides” (priority 2002, published 2007).
Entries after “also recorded” stand apart in the source; their conditions may differ. One block for each substance: values may come before it.

Tests used:
[1] = test system: UMR106.01 cells; experiment: cAMP production (adenylate cyclase response) in UMR106.01 cells; format: cell-based; settings: for cAMP formation by the peptide alone: FIG. 5A/5B; for maximum amplitude of cAMP response: compared with other peptides at highest concentrations
Description: The PTH-like biological activity of the peptides was assayed by measuring cyclic adenosine 3′,5′-monophosphate (cAMP) production in UMR106.01 cells (Forrest et al, Calcif Tissue Int, 37:52-56 (1985)), grown to 90% confluence. Prior to assaying, the cells were washed once with phosphate buffered saline (PBS) and equilibrated for 20 mins in medium containing 0.1% BSA and lmM-isobutylmethylxanthine (Sigma, St Louis, USA). Cells were subsequently stimulated at 37° C for 10 mins in the absence and presence of increasing hormone concentrations. The cells were then washed once with PBS and cAMP was extracted with 1.5 ml acidified ethanol. Samples were evaporated to dryness, reconstituted in assay buffer and assayed by a specific cAMP radioimmunoassay (Houssami et al, Endocrine J. 2:127-134 (1994)).

[2] = target: PTH-1R (UniProt P25961); experiment: cell-based or functional assay
UniProt P25961, sequence (P25961 27-591 limits assumed): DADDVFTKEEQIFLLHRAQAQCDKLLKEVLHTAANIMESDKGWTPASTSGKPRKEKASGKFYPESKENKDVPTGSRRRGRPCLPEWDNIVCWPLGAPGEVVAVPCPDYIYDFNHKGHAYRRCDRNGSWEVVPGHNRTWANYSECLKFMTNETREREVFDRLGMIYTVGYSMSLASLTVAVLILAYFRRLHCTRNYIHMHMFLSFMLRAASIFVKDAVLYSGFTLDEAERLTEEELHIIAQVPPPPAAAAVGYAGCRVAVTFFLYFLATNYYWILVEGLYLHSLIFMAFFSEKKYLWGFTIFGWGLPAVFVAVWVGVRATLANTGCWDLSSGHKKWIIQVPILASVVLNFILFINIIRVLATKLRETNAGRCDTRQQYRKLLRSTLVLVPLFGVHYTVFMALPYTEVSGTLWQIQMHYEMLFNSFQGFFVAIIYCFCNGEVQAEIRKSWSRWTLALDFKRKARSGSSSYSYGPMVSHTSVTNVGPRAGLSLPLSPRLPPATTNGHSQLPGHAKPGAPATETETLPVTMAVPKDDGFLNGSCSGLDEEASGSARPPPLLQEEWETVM

[3] = test system: polyclonal antisera raised against human PTHrP(1-14), human PTHrP(1-141) and hPTH(1-34); experiment: Immunoblots (dot blots) with anti-human PTHrP and anti-human PTH antisera; format: binding, rabbit; settings: 10, 25, 50 μg spotted, data not shown
Text: Seven antisera (R88, R1904, R1942, R87, R1348, R196, R212) were raised against human PTHrP(1-14) and one antiserum (R190) was raised against human PTHrP(1-141). The anti-PTH polyclonal antibody was raised against hPTH(1-34)(BioGenex, San Ramon, USA). The anti-human PTHrP antisera have been used successfully in immunohistochemistry and Western blotting with tissues taken from bony and cartilaginous fishes (Danks et al, Gen Comp Endocrinol, 92:201-212 (1993); Ingleton et al, Gen Comp Endocrinol 98:211-218 (1995)). The anti-PTH antiserum has been used in immunohistochemistry of human parathyroid material and Western blotting (Danks et al, J Pathol, 161:27-33 (1993)). 10, 25, 50 μg of Fugu PTH were spotted along side a positive control, (ie human PTHrP(I-34)), on nitrocellulose membrane (Schleicher & Schuell, Dassel, Germany). After an initial incubation period with Tris buffered saline, 0.2% Tween, 5% skim milk powder to block non specific binding sites, the nitrocellulose membrane was incubated with primary polyclonal antibody, followed by secondary antibody (anti-rabbit serum conjugated to horseradish peroxidase (Dako, Carpenteria, USA)) incubation. Three washes on a shaker table were done in between incubations. A BM chemiluminescence blotting system (Roche Applied Sciences, Mannheim, Germany) was used to detect specific dot blots.

[4] = test system: bones of male Sprague-Dawley rats; experiment: Anabolic effect on bones of rats (histomorphometry of proximal tibiae); format: in vivo, rat; settings: for histomorphometric markers of bone resorption: FIG. 11; for osteoblast number per unit osteoid surface: FIG. 10
Description: The anabolic effect of Fugu PTH was assessed in the bones of 50-60 g male Sprague-Dawley rats (3-4 weeks old).
Rats were subcutaneously administered a low or high dose (3 or 10 gg) of Fugu PTH(1-34) per 100 g body weight each day for 30 days. The synthetic PTH peptides were dissolved in 0.01M acetic acid and then daily injections were prepared in normal saline with 2% rat serum (from male Sprague-Dawley rats). The rats were weighed twice a week and the PTH dose adjusted for the increasing weight of each animal.
There were 12 rats in each of the following treatment groups: control, human PTH (low or high dose) and Fugu PTH (low or high dose). Rats were euthanased using asphyxiation and tibiae were removed, leaving most of the muscle on the bone. The samples were placed into freshly prepared 4% paraformaldehyde. They were fixed for 24 hours and then transferred to 70% ethanol in preparation for histomorphometry.
Fixed tibiae were X-rayed and embedded in methylmethacrylate resin as follows: Tibiae were cleaned of muscle, then bisected transversely and trimmed approximately 2 mm on each side using a water cooled slow speed bench saw to provide a flat surface for embedding, parallel to the sagittal midline. Fixed tibiae were dehydrated in acetone by hourly changes of 70% acetone, 90% acetone and 100% acetone (×2). After dehydration, samples were infiltrated with methylmethacrylate resin (85% methylmethacrylate, 15% dibutylphthalate, 0.05% benzoyl peroxide) twice for at least 3 days (minimum total of 6 days). For at least one day of the infiltration procedure, samples were infiltrated under vacuum at room temperature; all other steps were carried out at 4° C. After infiltration, tibiae were embedded in glass scintillation vials on a polymerised methylmethacrylate base in methylmethacrylate resin (85% methylmethacrylate, 15% dibuylphthalate, 3% benzoyl peroxide) in a waterbath in a 37° C. incubator over 48 hours. After polymerisation, a third layer of methacrylate was included (same components as above plus acrylic resin beads) and allowed to polymerise over another 48 hours. After samples were fully polymerised, they were cooled at −20° C. to allow polymer contraction, before the embedded tibiae were released from the glass vials by smashing them with a hammer. Polymerised tibiae were then ground on an electric grinder/ polisher to expose the bone surface, and provide a squared block to sit securely in a microtome. 5 μm sections were cut on a Leica 2165 microtome, spread with 95% ethanol and adhered to glass microscope slides by clamping overnight at 37° C. separated by pieces of bagging plastic. Fully adhered sections were deplasticised in cellosolve for 2×25 minutes, dehydrated in graded ethanols and stained with toluidine blue for standard histomorphometry. Von Kossa staining was carried out to provide composite images.
Histomorphometry was carried out according to standard procedures using the Osteomeasure Image analysis system (Osteometrics, Decatur, Ga.) in the secondary spongiosa, starting 3 mm below the growth plate in a region 3 mm wide by 1.1 mm high. Data was analysed by one-way ANOVA followed by Tukey's post-hoc test to locate significant differences.

[5] = test system: PTH-3R; settings: zebrafish PTH-3R, Rubin et al; cited from earlier work
[6] = 10 microgram/100 gram body weight/day, 30 days, vs untreated control
[7] = high dose 10 microgram/100 gram body weight/day

Substance: Fugu PTH(1-32): synthetic fragment, amino acids 1-32 of Fugu PTH (TVSEVQLMHNLGEHKQVQERREWLQRRLHGIH)
- cAMP formation by the peptide alone [1]: stimulated cAMP formation
- maximum amplitude of cAMP response [1]: higher amplitude of maximum cAMP response than Fugu PTHrP(1-34)

- ID50 of adenylate cyclase response (FIG. 5B), UMR106.01 cells [2]: 1.5 nM
- ID50 of cAMP formation in UMR106.01 cells [2]: 1.4 nM
Substance: Fugu PTHrP(1-34) (peptide)

Substance: human PTHrP(7-34): human parathyroid hormone-related protein fragment 7-34, co-incubated as inhibitor of the cAMP response [reference compound]
- inhibition of the cAMP response to agonist peptides ([1]; increasing concentrations co-incubated with 10 nM Fugu PTH(1-34), 1 nM human PTH(1-34), 0.5 nM Fugu PTHrP(1-34) or 0.5 nM human PTHrP(1-34), data not shown): partial inhibition of the cAMP response

Substance: TVSEVQLMHNLGEHKQVQERREWLQRRLHGIHPIGLNNDDEPGWGRKGIASRELPNLRDLTPEEIQNALNVLEELLKSQE [Fugu PTH(1-34)]
- potency in cAMP assay relative to other peptides [1]: less potent than human PTH(1-34), human PTHrP(1-34) and Fugu PTHrP(1-34)
- adenylate cyclase activity on co-incubation with Fugu PTHrP(1-34) ([1]; 100 nM Fugu PTH(1-34) with maximal dose 10 nM Fugu PTHrP(1-34), data not shown): no further increase in adenylate cyclase activity was observed
- cAMP formation by the peptide alone [1]: stimulated cAMP formation
- potency relative to human PTH or PTHrP ([1]; adenylate cyclase activation on a mammalian target cell): about one-fifth to one-tenth
- maximum amplitude of cAMP response [1]: higher amplitude of maximum cAMP response than Fugu PTHrP(1-34); also recorded: significantly greater than that achieved with the highest concentrations of human PTH, human PTHrP or Fugu PTHrP
- cross-reactivity with antisera against human PTHrP and human PTH [3]: does not cross-react; also recorded: is not recognised by any of the human PTH or human PTHrP antisera
- trabecular bone volume [4, 6]: significant increase
- trabecular number [4, 6]: significant increase
- trabecular separation [4, 6]: without a reduction
- trabecular thickness [4, 6]: significant increase
- osteoblast generation ([4]; 10 micrograms/100 grams): increased osteoblast generation
- anabolic effect on bone ([4]; 10 micrograms/100 grams, young growing rats): anabolic in young growing rats
- histomorphometric markers of bone resorption ([4]; dose not specified): not significantly altered
- osteoclast number [4, 7]: trend for reduced osteoclast numbers but this did not reach statistical significance; also recorded: trend towards reduced osteoclast number
- osteoblast number per unit osteoid surface [4, 7]: significantly increased
- osteoblast proliferation ([4]; low dose 3 microgram/100 gram body weight/day, FIG. 9): trend towards increased osteoblast proliferation
- osteoblast number per unit osteoid surface ([4]; low dose 3 microgram/100 gram body weight/day): significantly increased
- bone mass / trabecular density in proximal tibiae ([4]; young rats, s.c. daily for 30 days, 3 or 10 microgram/100 gram body weight/day, FIG. 6): increases bone mass in young rats; also recorded: apparent elevation of trabecular density

Substance: human PTH: human parathyroid hormone, comparator peptide in rats (low or high dose); fragment length not stated there [reference compound]
- fold less potent than human PTHrP or Fugu PTHrP in receptor activation [5]: 20 fold
- osteoclastogenesis ([4]; 10 microgram/100 gram): mild reduction in osteoclastogenesis
- histomorphometric markers of bone formation (osteoblast number and surface) ([4]; dose not specified in legend, FIG. 9): significantly elevated
- osteoblast number per unit osteoid surface [4, 7]: significantly increased
- histomorphometric markers of bone resorption [4, 7]: significantly reduced
